Source: US12084473B2, “β-D-2′-deoxy-2′-α-fluoro-2′-β-C-substituted-2-modified-N6-substituted purine nucleotides for HCV treatment” (Atea Pharmaceuticals, Inc., priority 2015, dated 2024)
Like-named read-outs stand apart in the source and are kept apart here.

Columns and labels:
[1] = system: HCV genotype 1b luciferase reporter replicon; test: microbe, parasite or virus in culture; type: cell-based; settings: Hepatitis C virus, HuH-7-Luc/Neo-ET, 72 h, read-out: HCV Replicon EC50/EC95: EC50
[2] = system: HCV Genotype 4d, NS5B Mutation none; test: microbe, parasite or virus in culture; type: cell-based
Description: (§1) Various patient-derived HCV genotypes containing wild-type and resistance-associated variants were used to determine their relative replication sensitivity to test compounds. Replicon resistance test vectors (RTVs) containing the NS5B genomic regions were prepared using viral RNA isolated from plasma of HCV patients. Each NS5B region was amplified by reverse-transcription polymerase chain reaction and cloned into an HCV replicon RTV which was then transferred by electroporation into Huh-7 cells.

[3] = system: HCV Genotype 1a, NS5B Mutation none; test: microbe, parasite or virus in culture; type: cell-based
Description: as §1

[4] = system: HCV Genotype 4a, NS5B Mutation none; test: microbe, parasite or virus in culture; type: cell-based
Description: as §1

[5] = system: HCV Genotype 3a-2, NS5B Mutation none; test: microbe, parasite or virus in culture; type: cell-based
Description: as §1

[6] = system: HCV Genotype 2b, NS5B Mutation none; test: microbe, parasite or virus in culture; type: cell-based
Description: as §1

[7] = system: HCV Genotype 1a, NS5B Mutation L159F; test: microbe, parasite or virus in culture; type: cell-based
Description: as §1

[8] = system: HCV Genotype 1b, NS5B Mutation none; test: microbe, parasite or virus in culture; type: cell-based
Description: as §1

[9] = system: HCV Genotype 2a, NS5B Mutation none; test: microbe, parasite or virus in culture; type: cell-based
Description: as §1

[10] = system: HCV Genotype 3a-1, NS5B Mutation none; test: microbe, parasite or virus in culture; type: cell-based
Description: as §1

[11] = system: HCV Genotype 1a, NS5B Mutation L159F and S282T; test: microbe, parasite or virus in culture; type: cell-based
Description: as §1

[12] = system: HCV Genotype 1b, NS5B Mutation C316N; test: microbe, parasite or virus in culture; type: cell-based
Description: as §1

HCV wild type replicon = test: microbe, parasite or virus in culture; type: cell-based
Description: (§2) A transient transfection assay was performed to determine the sensitivity of the […] of HCV to test compounds. Huh-7 cells were electroporated in the presence of RNA transcribed from wild type or S282T HCV replicon plasmids from the T7 promoter. The transfected cells were seeded in to 96-well plates at 7.5×10^3 cells per well in Dulbecco's Modified Eagle's medium. After 24 hr of incubation, medium was removed and replaced with fresh medium containing no or various concentrations of test compounds. Following an additional 96-hr incubation, the anti-HCV activity was measured by luciferase endpoint with Britelite™ Plus luminescence reporter gene kit (Perkin Elmer, Shelton, CT). Duplicate plates were treated and incubated in parallel for assessment of cellular toxicity by staining with the tetrazolium dye XTT.

HCV S282T replicon = test: microbe, parasite or virus in culture; type: cell-based
Description: as §2

[13] = Cytotoxicity by XTT staining in replicon cells; settings: human
Description: (§3) The plates were cultured for 24 hours prior to the addition of compounds. Six serial one half log dilutions of the test articles (high test concentration of 100.0 μM or high test concentration of 1.0 μM) and human interferon-alpha2b (high test 10.0 U/ml) were prepared in cell culture medium and added to the cultured cells in triplicate wells for each dilution. Six wells in the test plates received medium alone as an untreated control. Following 72 hours of culture in the presence of compound, one of the plates was used for the determination of cytotoxicity by staining with XTT and the other for antiviral efficacy by determination of luciferase reporter activity. Cytotoxicity and efficacy data were collected and imported into a customized Excel workbook for determination of the TC50 and EC50 values. […] The y-axis is the percent of virus control and the x-axis is the concentration of drug in μM. […] The y-axis is the percent of virus control and the x-axis is the concentration of drug in M.

Huh-7 luc/neo ET cells = test: Cytotoxicity by XTT staining in replicon cells; settings: read-out: HCV Replicon CC50; XTT, 72 hours
Description: as §3

[14] = system: HCV genotype 1b luciferase reporter replicon; test: microbe, parasite or virus in culture; type: cell-based
Description: as §3

[15] = Hepatitis C virus, 96 h, read-out: IC50 Value
[16] = Hepatitis C virus, read-out: IC50 Value
[17] = genotype 3a-2, no NS5B mutation
[18] = genotype 3a-1, no NS5B mutation
[19] = genotype 1a, NS5B L159F and S282T

## CC(C)OC(=O)[C@H](C)N[P@](=O)(OCC1O[C@@H](n2cnc3c(N(C)C4CC4)nc(N)nc32)[C@](C)(F)[C@@H]1O)Oc1ccccc1 (stereo partly drawn) [Compound 27, isopropyl ((((S)-(2R,3R,4R,5R)-5-(2-amino-6-(methylcyclopropanamino)-9H-purin-9-yl)-4-fluoro-3-hydroxy-4-methyltetrahydrofuran-2-yl)methoxy)-phenoxy-phosphoryl)-L-alaninate]
[1]
  EC50: 5 nM
[2]; [15]
  IC50: 5.6 nM
[2]; genotype 4d, no NS5B mutation
  Fold Change in IC50 from Sofosbuvir: 16.7
  Fold Change in IC95 from Sofosbuvir: 26.6
  IC95 Value: 38.4 nM
[3]; [16]
  IC50: 4.2 nM
[3]; genotype 1a, no NS5B mutation
  Fold Change in IC50 from Sofosbuvir: 15.0
  Fold Change in IC95 from Sofosbuvir: 19.3
  IC95 Value: 26.4 nM
[4]; [16]
  IC50: 3.6 nM
[4]; genotype 4a, no NS5B mutation
  Fold Change in IC50 from Sofosbuvir: 20.7
  Fold Change in IC95 from Sofosbuvir: 17.9
  IC95 Value: 38.1 nM
[5]; [16]
  IC50: 4.5 nM
[5]; [17]
  Fold Change in IC50 from Sofosbuvir: 27.5
  Fold Change in IC95 from Sofosbuvir: 34.6
  IC95 Value: 23.3 nM
[6]; [16]
  IC50: 3.1 nM
[6]; genotype 2b, no NS5B mutation
  Fold Change in IC50 from Sofosbuvir: 14.4
  Fold Change in IC95 from Sofosbuvir: 20.1
  IC95 Value: 14.7 nM
[7]
  cross-resistance to L159F mutant: neither 25, 27 nor 5-2 compound showed any evidence of cross-resistance
[7]; [16]
  IC50: 5.1 nM
[7]; genotype 1a, NS5B L159F
  Fold Change in IC50 from Sofosbuvir: 22.3
  Fold Change in IC95 from Sofosbuvir: 29.5
  IC95 Value: 36.2 nM
[8]; [16]
  IC50: 5 nM
[8]; genotype 1b, no NS5B mutation
  Fold Change in IC50 from Sofosbuvir: 0.9
  Fold Change in IC95 from Sofosbuvir: 22.2
  IC95 Value: 28.9 nM
[9]; [16]
  IC50: 2.9 nM
[9]; genotype 2a, no NS5B mutation
  Fold Change in IC50 from Sofosbuvir: 7.9
  Fold Change in IC95 from Sofosbuvir: 12.0
  IC95 Value: 16.2 nM
[10]; [16]
  IC50: 4.4 nM
[10]; [18]
  Fold Change in IC50 from Sofosbuvir: 28.4
  Fold Change in IC95 from Sofosbuvir: 27.2
  IC95 Value: 25.4 nM
[11]
  cross-resistance to L159F and S282T mutant: neither 25, 27 nor 5-2 compound showed any evidence of cross-resistance
[11]; [16]
  IC50: 14.9 nM
[11]; [19]
  Fold Change in IC50 from Sofosbuvir: 108.4
  Fold Change in IC95 from Sofosbuvir: 119.7
  IC95 Value: 141.6 nM
[12]
  cross-resistance to C316N mutant: neither 25, 27 nor 5-2 compound showed any evidence of cross-resistance
[12]; [16]
  IC50: 3.1 nM
[12]; genotype 1b, NS5B C316N
  Fold Change in IC50 from Sofosbuvir: 23.5
  Fold Change in IC95 from Sofosbuvir: 28.7
  IC95 Value: 16.5 nM
HCV wild type replicon
  IC95 Value: 4.1 nM
HCV wild type replicon; [15]
  IC50: < 1 nM
HCV wild type replicon; NS5B Mutation None
  Fold Change in IC50 from Sofosbuvir: >36.4
  Fold Change in IC95 from Sofosbuvir: 53.2
HCV S282T replicon
  cross-resistance to S282T variant: neither 25, 27, nor 5-2 compounds showed any evidence of cross-resistance
HCV S282T replicon; [15]
  IC50: < 1 nM
HCV S282T replicon; NS5B Mutation S282T
  Fold Change in IC50 from Sofosbuvir: >278
  Fold Change in IC95 from Sofosbuvir: >84.7
HCV S282T replicon; NS5B Mutation S282T, transient assay, 96-hr
  IC95 Value: 11.8 nM
[13]
  CC50 at 72 h: > 100000 nM
Huh-7 luc/neo ET cells
  CC50: > 100000 nM
[14]; Hepatitis C virus, read-out: EC50 in a replicon assay
  EC50: 5 nM
[14]; Hepatitis C virus, Huh-7 luc/neo ET cells, 72 hours, luciferase, read-out: HCV Replicon EC50/EC95: EC95
  EC95: 25 nM
[14]; Table 7
  Fold increase in activity compared to parent nucleoside: >1,100
